We go through 3 compounds from ChEMBL document CHEMBL4219252, “Synthesis, antimycobacterial activity and influence on mycobacterial InhA and PknB of 12-membered cyclodepsipeptides” (Bioorg Med Chem, 2018).

The subject of series [1] is Mycobacterium tuberculosis. As to the kind of experiment: Antimycobacterial activity against Mycobacterium tuberculosis H37Rv ATCC 27294 by microplate alamar blue assay. The format is functional. A general note: Alamar Blue is a resazurin reagent that responds to reducing activity.
For series [2], the system named is Mycolicibacterium smegmatis. The series can be described thus: Antimycobacterial activity against Mycobacterium smegmatis SG987 incubated overnight at 37 degC measured after 24 hrs by agar diffusion method. The format is functional.
Series [3] is described as follows: Antiproliferative activity against human K562 cells after 72 hrs by CellTiter-Blue1 assay. The format is cell-based.
The nature of series [4]: Cytotoxicity against human HeLa cells assessed as reduction in cell viability after 72 hrs by CellTiter-Blue1 assay. The format is cell-based.
In another series the test system is Mycolicibacterium vaccae. The series can be described thus: Antimycobacterial activity against Mycobacterium vaccae IMET 10670 incubated overnight at 37 degC measured after 24 hrs by agar diffusion method. It is filed as functional. (Agar diffusion results depend on both activity and mobility in agar.)
A short description of series [5]: Antiproliferative activity against HUVEC after 72 hrs by CellTiter-Blue1 assay. The format is cell-based. The note with it: human.
Series [6] deals with Mycobacterium tuberculosis. As to the kind of experiment: Antimycobacterial activity against Mycobacterium tuberculosis H37Rv after 7 days by BacTiter-Glo microbial cell viability assay. The format is functional. The note with it: Mycobacterium tuberculosis, H37Rv, 168 h; read-out: MIC.
Series [7] has as its system Mycolicibacterium smegmatis. As to the kind of experiment: Antimycobacterial activity against Mycobacterium smegmatis SG987 after 48 hrs by resazurin microtiter assay. The format is functional.
A further series deals with Mycolicibacterium aurum. As to the kind of experiment: Antimycobacterial activity against Mycobacterium aurum SB66 incubated overnight at 37 degC measured after 24 hrs by agar diffusion method. It is filed as functional.
Series [8] addresses T1, Serine/threonine-protein kinase PknB (Mycobacterium tuberculosis) (UniProt P9WI81).
T1 sequence (whole entry): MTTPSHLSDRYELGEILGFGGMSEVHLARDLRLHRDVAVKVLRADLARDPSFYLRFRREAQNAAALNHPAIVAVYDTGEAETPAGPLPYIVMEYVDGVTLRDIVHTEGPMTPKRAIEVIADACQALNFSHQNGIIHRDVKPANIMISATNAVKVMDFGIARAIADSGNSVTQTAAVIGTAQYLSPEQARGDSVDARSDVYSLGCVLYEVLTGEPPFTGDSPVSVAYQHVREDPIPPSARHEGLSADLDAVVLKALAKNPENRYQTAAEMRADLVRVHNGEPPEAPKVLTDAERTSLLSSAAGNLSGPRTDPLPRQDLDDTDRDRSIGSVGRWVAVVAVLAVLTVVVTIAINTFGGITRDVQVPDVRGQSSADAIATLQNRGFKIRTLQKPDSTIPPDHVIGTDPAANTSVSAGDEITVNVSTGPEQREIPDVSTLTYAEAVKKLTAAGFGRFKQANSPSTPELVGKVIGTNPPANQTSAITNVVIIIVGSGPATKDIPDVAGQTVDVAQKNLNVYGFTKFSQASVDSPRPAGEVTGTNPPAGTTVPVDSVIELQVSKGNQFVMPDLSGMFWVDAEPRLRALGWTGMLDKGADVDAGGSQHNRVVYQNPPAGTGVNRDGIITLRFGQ
As to the kind of experiment: Inhibition of Mycobacterium tuberculosis GST-tagged PknB expressed in Escherichia coli assessed as reduction in PknB autophosphorylation at 4.8 uM preincubated for 30 mins followed by [gamma32P]ATP addition measured after 30 mins by scintillation counting method relative to control.

Another series deals with Escherichia coli. The series can be described thus: Antibacterial activity against Escherichia coli SG458 incubated overnight at 37 degC measured after 24 hrs by agar diffusion method. The format is functional, organism-based.
The next series has as its system Bacillus spizizenii. The series can be described thus: Antibacterial activity against Bacillus subtilis ATCC 6633 incubated overnight at 37 degC measured after 24 hrs by agar diffusion method. It is filed as functional, organism-based.
Series [9] has as its system Sporobolomyces salmonicolor. As to the kind of experiment: Antifungal activity against Sporobolomyces salmonicolor 549 incubated overnight at 30 degC measured after 24 hrs by agar diffusion method. It is filed as functional, organism-based.

≈ marks a conversion by molar mass, not a printed value. Calls of active or inactive are those of the source. No cut-off for these calls is given here. Some results are limits rather than exact numbers.

On to `COC(=O)/C=C/C(=O)c1ccc(OC)cc1`, for which the lowest concentration to inhibit growth in [1] (MIC) was 1.14 µM (≈ 0.251 µg/mL).
Consider `C[C@H]1OC(=O)COC(=O)CCC(Cc2ccccc2)NC(=O)[C@H]1NC(=O)OC(C)(C)C` (stereo in doubt; form 2), for which the “diameter of the inhibition zone (DIZ)” value was 21 mm in series [2], 24 - 31 mm in the series with Mycolicibacterium vaccae and 0 mm with Mycolicibacterium aurum. Moreover, the 50% growth inhibitory concentration (GI50) at 72 h in [3] and in series [5] was 5 to 50 µg/mL (≈ 11.5 to 115 µM) in each case. Besides, in [4], the 50% cytotoxic concentration (CC50) – broadly, the concentration giving 50% cytotoxicity – at 72 h lay in the range of 5 to 50 µg/mL (≈ 11.5 to 115 µM). Moreover, the values for the MIC in [6] and in series [7] were 4 µM (≈ 1.74 µg/mL) and 7.2 µM (≈ 3.13 µg/mL), respectively.
For `C[C@H]1OC(=O)CCC(Cc2ccccc2)NC(=O)[C@@H](NC(=O)c2ncccc2O)[C@@H](C)OC1=O` (stereo partly specified), the “diameter of the inhibition zone (DIZ)” value was 17 mm in [2], 21 - 29 mm in the series on Mycolicibacterium vaccae and 0 mm in the series with Mycolicibacterium aurum. Also, the inhibition (usually the share of the control response that was lost under treatment) in series [8] was determined as 35%. Also, the GI50 at 72 h in [3] and in series [5] was above 5 µg/mL throughout. Besides, in series [4], the CC50 at 72 h is above 5 µg/mL. Moreover, the outcome (with Escherichia coli; with Bacillus spizizenii; in series [9]) was inactive. Moreover, the minimum inhibitory concentration (MIC) (as a rule, the lowest concentration found to suppress growth) in series [6] was determined as 8 µM (≈ 3.76 µg/mL); in series [7] (Mycolicibacterium smegmatis, SG987, 48 h, read-out: MIC), 13.7 µM (≈ 6.43 µg/mL).
